For one data set, the system named is viral infection. The conditions noted are these: cited from earlier work.
Data set [1] deals with NTM.V Ab in sera of HIV-positive and healthy individuals. The data set can be described thus: ELISA IgG reactivity toward NTM peptide, non-heat-inactivated versus heat-inactivated sera. Type of data set: binding, human. The conditions noted are these: compared with the same heat-inactivated sera. As to the method: The antibody binding of individual patient sera (measured by ELISA assay for heat-inactivated sera dilution 1:100) was presented by single point.
(a) Healthy individuals, and (b) HIV-positive patients.
Reactivity of sera collected from the healthy HIV-negative as well as HIV-positive individuals was examined after heat-inactivation at 40° C. and 56° C. The heat treatment of sera was performed in duration of 10, 20 and 30 minutes. Based on the obtained results (FIG. 14), it can be concluded that release of the NTM.V Ab from immune complexes is temperature and time dependent. In these experiments IgG reactivity toward two forms of the NTM peptide were monitored, i.e. uncoupled and BSA-coupled forms. The reactivity patterns of both NTM forms were similar.

Data set [2] deals with natural anti-VIP antibodies in sera of HIV-negative asthma patients. The following applies: sera of HIV-negative asthma patients with high titres of natural anti-VIP antibodies; cited from earlier work.

The values that follow come from patent publication US20010007017A1, “PEPTIDES WHICH REACT WITH ANTIBODY RE[…] […] FOR HIV DISEASE PROGRESSION” (priority 1996, published 2001).

Consider VVVRSLTFKTNKKT, for which, in the data set on viral infection (in vivo as printed), the “blocking of viral infection” value is “effectively blocks viral infection”. Moreover, the “effect on lymphocyte function” value in the data set with viral infection (in vivo) was “without impairing lymphocyte function”.

Regarding “RSANFTDNAKTIIVQLNESVEIN [NTM, HIV-1 gp120-derived natural peptide]”, in data set [1], the “reactivity with non-heat-inactivated sera” value was “very low reactivity”. Further, in data set [2], the “main end-point titre for hyperimmune sera” value is given as 1/10000 and the “reactivity of sera with the peptide” value is reported as “strong reactivity”.
